We go through 5 compounds from PMC3210601, “New Tetromycin Derivatives with Anti-Trypanosomal and Protease Inhibitory Activities” (Marine Drugs, 2011).

One series addresses falcipain-2 (Plasmodium falciparum, UniProt Q8I6U4). Put plainly: Fluorometric protease inhibition assay, falcipain-2. The conditions noted are these: for Ki: read-out: FP Ki; for FP k2nd: time-dependent inhibition, k2nd = ki/Ki. The format is biochemical, P. falciparum.
For the next series, the target named is cathepsin L (Homo sapiens, UniProt P07711). Put plainly: Fluorometric protease inhibition assay, cathepsin L. The conditions noted are these: for Ki: read-out: CL Ki; for CL k2nd: time-dependent inhibition, k2nd = ki/Ki. The format is biochemical, mammalian.
Chain of cathepsin L (P07711 114-333, species assumed): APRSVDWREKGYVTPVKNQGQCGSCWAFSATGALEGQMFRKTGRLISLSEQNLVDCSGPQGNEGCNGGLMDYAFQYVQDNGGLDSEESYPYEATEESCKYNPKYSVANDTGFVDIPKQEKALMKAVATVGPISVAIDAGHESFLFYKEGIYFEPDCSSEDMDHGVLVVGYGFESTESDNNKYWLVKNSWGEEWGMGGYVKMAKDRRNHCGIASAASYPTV
Series [1] is described as follows: Cytotoxicity Alamar Blue assay, 293T kidney epithelial cells. To be noted: human.
The next series deals with rhodesain (Trypanosoma brucei rhodesiense, UniProt Q95PM0). Put plainly: Fluorometric protease inhibition assay, rhodesain. The format is biochemical, T. brucei rhodesiense. To be noted: for Ki: read-out: RD Ki; for RD k2nd: time-dependent inhibition, k2nd = ki/Ki.
Chain of rhodesain (Q95PM0 entry or part of it): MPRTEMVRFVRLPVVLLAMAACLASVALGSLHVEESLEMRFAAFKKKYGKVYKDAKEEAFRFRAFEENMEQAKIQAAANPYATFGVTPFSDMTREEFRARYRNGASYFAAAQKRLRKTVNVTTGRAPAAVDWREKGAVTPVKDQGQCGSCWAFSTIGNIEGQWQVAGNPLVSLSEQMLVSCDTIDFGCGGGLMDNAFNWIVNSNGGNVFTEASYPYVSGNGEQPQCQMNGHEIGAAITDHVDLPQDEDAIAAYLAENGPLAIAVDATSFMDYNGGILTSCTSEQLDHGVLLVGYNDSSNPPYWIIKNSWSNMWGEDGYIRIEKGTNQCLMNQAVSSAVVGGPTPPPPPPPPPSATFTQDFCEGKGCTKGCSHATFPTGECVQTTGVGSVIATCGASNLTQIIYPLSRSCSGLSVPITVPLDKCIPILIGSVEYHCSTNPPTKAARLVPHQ
For series [2], the system named is Leishmania major promastigotes. Put plainly: Anti-Leishmania Alamar Blue assay (promastigotes). To be noted: read-out: IC50 L. major.
The subject of series [3] is Trypanosoma brucei subsp. brucei. Put plainly: Anti-Trypanosoma Alamar Blue assay (trypomastigotes, strain TC 221).
The next series deals with cathepsin B (Homo sapiens, UniProt P07858). Put plainly: Fluorometric protease inhibition assay, cathepsin B. The conditions noted are these: for Ki: non-time dependent, Dixon equation, corrected to zero substrate, substrate 100 μM, pH 6.2, 25 °C, read-out: CB Ki. It counts as biochemical, mammalian.
A further series has as its target SARS-CoV PL^pro (Severe acute respiratory syndrome coronavirus, UniProt P0C6X7). Put plainly: biochemical.
The conditions of series [4]: mouse.
Where [5] appears, read: 48 h, read-out: IC50 T. brucei brucei (48 h).
The mark [6] stands for this setting: 72 h, read-out: IC50 T. brucei brucei (72 h).
Where [7] appears, read: progress curves, inhibitor 0-16.7 μM (Figure 6).

Molecules are shown by their SMILES. “And” between values parts separate entries of the source, which are not always exact repeats. Equal values may be shown once. Read-outs that look alike come from different tables or passages of the source. Bounds are passed on as bounds.

Chain of falcipain-2 (Q8I6U4 244-484): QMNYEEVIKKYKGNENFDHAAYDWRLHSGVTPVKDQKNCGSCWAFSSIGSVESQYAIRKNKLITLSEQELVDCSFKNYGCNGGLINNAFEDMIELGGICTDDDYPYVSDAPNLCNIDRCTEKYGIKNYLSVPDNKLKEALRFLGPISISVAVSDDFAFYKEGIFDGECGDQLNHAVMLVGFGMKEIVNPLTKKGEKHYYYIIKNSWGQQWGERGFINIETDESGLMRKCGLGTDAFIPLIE

Turning to `COc1cc(O)cc(C)c1C(=O)OC1C(C)OC(OC2CC(C)=CC3C2CC(C)C2/C(C)=C\CC/C(C)=C/C4(C)C=C(C(=O)O)C(C)CC45OC(=O)C(=C5O)C(=O)C32C)C(O)C1O` (stereo not drawn) [Compound 4, Tetromycin 4], the Ki on falcipain-2 came to 3.1 ± 0.2 µM; at cathepsin L, 22.4 ± 0.8 µM; on rhodesain, 4 ± 0.3 µM; on cathepsin B, 1.6 ± 0.1 µM; on SARS-CoV PL^pro, 40 ± 6.5 µM. For the same compound, on falcipain-2, the “FP k2nd” value amounted to 1836 ± 108 M⁻¹ min⁻¹. In addition, the “CL k2nd” value at cathepsin L was 14,700 ± 1000 M^−1 min^−1. The same compound had an IC50 at 24 h in series [1] (293T kidney epithelial cells) of 58.6 µM. Besides, the “RD k2nd” value on rhodesain is 8354 ± 1562 M⁻¹ min⁻¹. The IC50 in series [2] is > 100 µM; in series [3] (setting [5]), 35.9 µM; in series [3] (setting [6]), 41.6 µM.

For `COc1cc(C)c(C(=O)NC2C(C)OC(OC3CC(C)=CC4C3CC(C)C3/C(C)=C\CC/C(C)=C/C5(C)C=C(C(=O)O)C(C)CC56OC(=O)C(=C6O)C(=O)C43C)C(O)C2(C)O)c(O)c1` (stereo not drawn) [Compound 1, Tetromycin 1], the IC50 at 24 h in [1] (293T kidney epithelial cells) is > 100 µM. Also, the IC50 was > 100 µM in series [2], 29.3 µM in series [3] (setting [5]) and 31.7 µM in series [3] (setting [6]).

`COc1cc(C)c(C(=O)OC2C(C)OC(OC3CC(C)=CC4C3CC(C)C3/C(C)=C\CC/C(C)=C/C5(C)C=C(C(=O)O)C(C)CC56OC(=O)C(=C6O)C(=O)C43C)C(O)C2O)c(OC)c1` (stereo not drawn) [Compound 2, Tetromycin 2]: in series [1] (293T kidney epithelial cells), the IC50 at 24 h was > 100 µM. The IC50 in [2] was > 100 µM; in series [3] (setting [5]), 45.4 µM; in series [3] (setting [6]), 80.3 µM.

As to `CC1=CC2(C)/C=C(\C)CC/C=C(/C)C3C(C)=CC4C(O)CCC(C)C4C3(C)C(=O)C3=C(O)C2(CC1C)OC3=O` (stereo not drawn) [Compound 5, Tetromycin B], the Ki was 1.42 ± 0.01 µM on falcipain-2; 32.5 ± 0.05 µM at cathepsin L; 0.62 ± 0.03 µM at rhodesain; 1.5 µM and 1.59 µM at cathepsin B; 69.6 ± 7.2 µM at SARS-CoV PL^pro. Besides, on falcipain-2, the “FP k2nd” value was 15,540 ± 1295 M^−1 min^−1. Further, on cathepsin L, the “CL k2nd” value came to 1576 ± 413 M⁻¹ min⁻¹. Moreover, the 50% inhibitory concentration (IC50) at 24 h in series [1] was 71.8 µM; in series [4], 20.2 µM. At rhodesain (Ki determined at three different substrate concentrations), the “mode of inhibition with respect to the substrate, rhodesain” value is “competitive inhibition”. Moreover, the “time dependence of inhibition, rhodesain” value on rhodesain (setting [7]) is recorded as “time-dependent inhibition”. The “RD k2nd” value on rhodesain was 14,539 ± 1949 M^−1 min^−1. Further, the IC50 is > 100 µM in series [2], 30.9 µM in series [3] (setting [5]) and 34.2 µM in [3] (setting [6]). Besides, the “time dependence of inhibition, cathepsin B” value on cathepsin B (setting [7]) is on record as “non-time dependent inhibition”.

`COc1cc(O)cc(C)c1C(=O)OC1C(C)OC(OC2CC=C(C)C3C2CC(C)C2/C(C)=C\CC/C(C)=C/C4C=C(C(=O)O)C(C)CC45OC(=O)C(=C5O)C(=O)C32C)C(O)C1O` (stereo not drawn) [Compound 3, Tetromycin 3]: the Ki on falcipain-2 came to 1.65 ± 0.25 µM; on cathepsin L it was 15 ± 1.95 µM; at rhodesain, 2.1 ± 0.9 µM; on cathepsin B, 0.57 ± 0.04 µM. Besides, the “FP k2nd” value at falcipain-2 came to 617 ± 9 M⁻¹ min⁻¹. Besides, the “CL k2nd” value on cathepsin L is on record as 14,977 ± 2005 M^−1 min^−1. This compound registered a half-inhibitory concentration (IC50) at 24 h in [1] (293T kidney epithelial cells) of 33.4 µM. Besides, the “ki (rate constant of inhibition) rhodesain” value at rhodesain (Figure 8, data from two independent assays) stood at 0.042 min⁻¹. The “RD k2nd” value on rhodesain is reported as 36,600 ± 1590 M^−1 min^−1. The IC50 was determined as 36.8 µM in series [2], 26.9 µM in [3] (setting [5]) and 30.4 µM in series [3] (setting [6]).
